Results published in patent publication US20220354852A1, “TARGETING WNT SIGNALING FOR IMPROVED GLIOMA IMMUNOTHERAPY” (CITY OF HOPE, priority 2021, published 2022).

Legend:
[1] = system: subcutaneous K-luc tumors; experiment: IHC of immune cells in syngeneic subcutaneous K-luc glioma tumors; format: in vivo, mice (C57BL/6); conditions: 50 mg/kg/day by subcutaneous Alzet minipumps
Protocol: FIG. 22. IHC analysis of immune cells in syngeneic models of subcutaneous glioma (K-Luc). (A-D) Mice bearing subcutaneous K-luc glioma tumors were treated with ICG-001 (50 mg/kg/day) for 7, 14, or 21 days. At the end of treatment, tumor was excised and IHC stained for CD3 cells to evaluate recruitment and patterns of CD3 distribution (red). (E) Quantification of tumor coverage using ImageJ for mouse CD3, CD4, CD8, and CD31 positive cells on days 0-21. Scale bars are S.D. of duplicate sections (n=4).
Animal studies. Syngeneic mice (C57BL/6) of 8-12 weeks of age were implanted with subcutaneous K-Luc tumors (n=8). 7 days after, when tumors became palpable and after confirmation of the tumor presence with BLU imaging, mice were implanted with Alzet minipumps with ICG001 (50 mg/kg/day). Pumps were continuously providing a daily dose of ICG-001. […]
IHC was performed in COH pathology core. Tissues were scanned and quantification of CD4, CD8 and CD31 expression was done using ImageJ software.
Image analysis. Images were processed and analyzed in the ImageJ (Schneider et al. 2012, also see Schneider, C. A., Rasband, W. S., Image J, U. S. National Institutes of Health, Bethesda, Md., USA, https://imagej.nih.gov/ij/, 1997-2018). […] A watershed filter was then applied to this processed mask and the ‘Analyze Particles’ tool with a 4 pixel minimum size was employed to quantify the cells identified. […]

[2] = system: murine-derived glioma cell lines (K-luc, GL261-parental, and GL261.IL13Rα2 engineered); experiment: ICG-001 single agent on murine-derived glioma cell lines (growth kinetics); format: cell-based, mouse; conditions: ICG-001 0-10 μM, 4 days
Protocol: FIG. 11. (A, B) Growth kinetics of human PBT glioma lines (PBT017, PBT030, PBT135, PBT144, and PBT147) treated with ICG-001 (0-10 μM) for 7 days and (C) mouse glioma cells (GL261, GL261-IL13, and K-luc) treated with ICG-001 (0-10 μM) for 4 days. Red boxes indicate PBT030 and PBT147 cell lines used for Nanostring and proteomics analysis. Scale bars represent S.D. of triplicate samples. (D-F) Growth kinetics of PBT017 (2,500 cells/well) treated with or without HER2-CAR T cells (500 cells/well) and with or without ICG-001 (0-5 μM). The red line is CAR T cell treatment only and the bottom three lines are with ICG-001. Experiment was done in quadruplicate and error bars indicate S.D.
ICG-001 activity in vitro in human and mouse glioma cell lines. Initially, the effects of the specific CBP/β-catenin antagonist ICG-001 was tested in vitro as a single agent on human and mouse glioma cell lines (5 PBT human and 3 mouse glioma lines).

[3] = Orthotopic syngeneic murine hepatocellular carcinoma model (qRT-PCR, IHC); format: in vivo; conditions: IHC, minimally 10 fields counted
Description: CXCL9 and CXCL10, are produced mainly by BATF3 dendritic cells that are required for Teff trafficking. The CXCL9, CXCL10, CXCL11/CXCR3 signaling axis is critical for activated T-helper type 1 (Th1), cytotoxic T-cell (CTL), and natural killer (NK) cell recruitment immune cell recruitment in vivo. A similar effect resulting from ICG-001 is likely, such as increased CD8^+T-cell infiltration into brain tumors (FIG. 3B).

[4] = system: tumor cell glycolytic activity; conditions: previously shown; cited from earlier work
[5] = Tran and Zheng 2017; cited from earlier work
[6] = system: normal somatic stem cell population; conditions: preclinical studies; cited from earlier work

O=C1[C@H](Cc2ccc(O)cc2)N2C(=O)CCN(C(=O)NCc3ccccc3)[C@H]2CN1Cc1cccc2ccccc12 [ICG-001]
CD3+, CD8+, and CD4+ cells infiltrating the tumor ([1]; by day 14): increase in mouse host immune cells | CD31 expression in tumor ([1]; days 7, 14, 21): time-dependent increase | effect on cell growth (growth kinetics) [2]: concentration dependent cytostatic effect | CD8+ T cell infiltration into the tumor microenvironment [3]: increased CD8+ T cell infiltration | glycolytic activity and extracellular acidification of tumor cells [4]: decrease in glycolytic activity and extracellular acidification | blood-brain barrier crossing [5]: cross the blood-brain barrier | therapy-induced toxicity [6]: ameliorated therapy-induced toxicity
